PubChem BioAssay AID248 (DTP/NCI, 2004)
“And” between values parts separate entries of the source, which are not always exact repeats. Equal entries are not always repeated. Toxic doses and inconclusive results are not listed. Cut-off read from the data, not from the text of the source: active = T/C of 150% or more; inactive = T/C below 125%.

Tested on: L1210 leukemia ip in BDF1 mice, survival T/C
Test: NCI In Vivo Anticancer Drug Screen. Data for tumor model L1210 Leukemia (intraperitoneal) in B6D2F1 (BDF1) mice
Details: endpoint: mean survival time, higher = longer survival
How it was run: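 Each compound was tested against a transplantable tumor grown in mice. The endpoint was survival, with treated animals benchmarked against vehicle controls as a simple ratio.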

[1] = dose: 100.0 mg/kg/injection, schedule: Q01DX009 (ip), vehicle: Klucel (hydroxypropylcellulose) (HPC)
[2] = dose: 100.0 mg/kg/injection, schedule: Q04DX003 (ip), vehicle: Klucel (hydroxypropylcellulose) (HPC)
[3] = dose: 200.0 mg/kg/injection, schedule: Q01DX009 (ip), vehicle: Klucel (hydroxypropylcellulose) (HPC)
[4] = dose: 200.0 mg/kg/injection, schedule: Q04DX003 (ip), vehicle: Klucel (hydroxypropylcellulose) (HPC)
[5] = dose: 400.0 mg/kg/injection, schedule: Q01DX009 (ip), vehicle: Klucel (hydroxypropylcellulose) (HPC)
[6] = dose: 400.0 mg/kg/injection, schedule: Q04DX003 (ip), vehicle: Klucel (hydroxypropylcellulose) (HPC)
[7] = dose: 100.0 mg/kg/injection, schedule: Q01DX001 (ip), vehicle: carboxymethylcellulose (CMC)
[8] = dose: 200.0 mg/kg/injection, schedule: Q01DX001 (ip), vehicle: carboxymethylcellulose (CMC)
[9] = dose: 400.0 mg/kg/injection, schedule: Q01DX001 (ip), vehicle: carboxymethylcellulose (CMC)
[10] = dose: 100.0 mg/kg/injection, schedule: Q01DX001 (ip), vehicle: saline
[11] = dose: 200.0 mg/kg/injection, schedule: Q01DX001 (ip), vehicle: saline
[12] = dose: 100.0 mg/kg/injection, schedule: Q04DX003 (ip), vehicle: saline with Tween-80
[13] = dose: 200.0 mg/kg/injection, schedule: Q04DX003 (ip), vehicle: saline with Tween-80
[14] = dose: 400.0 mg/kg/injection, schedule: Q04DX003 (ip), vehicle: saline with Tween-80
[15] = dose: 100.0 mg/kg/injection, schedule: Q04DX002 (ip), vehicle: saline
[16] = dose: 100.0 mg/kg/injection, schedule: Q01DX009 (ip), vehicle: saline with Tween-80
[17] = dose: 200.0 mg/kg/injection, schedule: Q01DX009 (ip), vehicle: saline with Tween-80
[18] = dose: 100.0 mg/kg/injection, schedule: Q04DX003 (ip), vehicle: saline
[19] = dose: 200.0 mg/kg/injection, schedule: Q04DX003 (ip), vehicle: saline
[20] = dose: 50.0 mg/kg/injection, schedule: Q01DX009 (ip), vehicle: Klucel (hydroxypropylcellulose) (HPC)
[21] = dose: 100.0 mg/kg/injection, schedule: Q01DX009 (ip), vehicle: saline
[22] = dose: 200.0 mg/kg/injection, schedule: Q01DX009 (ip), vehicle: saline
[23] = dose: 400.0 mg/kg/injection, schedule: Q01DX001 (ip), vehicle: saline
[24] = dose: 400.0 mg/kg/injection, schedule: Q01DX009 (ip), vehicle: saline
[25] = dose: 400.0 mg/kg/injection, schedule: Q04DX003 (ip), vehicle: saline
[26] = dose: 400.0 mg/kg/injection, schedule: Q01DX009 (ip), vehicle: saline with Tween-80

Measured: T/C

O=[N+]([O-])c1ccc2cn[nH]c2c1
inactive: [1] 112 % of control | [2] 95 % of control | [3] 106 % of control | [4] 92 % of control | [5] 107 % of control | [6] 96 % of control

ClC1(Cl)CC2CC1C1C3CC(C4OC34)C21 (stereo unspecified)
inactive: dose: 50.0 mg/kg/injection, schedule: Q01DX001 (ip), vehicle: carboxymethylcellulose (CMC) 94 % of control and 119 % of control | [7] 94 % of control | [8] 105 % of control | [9] 98 % of control

CCCCSCCN
inactive: dose: 75.0 mg/kg/injection, schedule: Q01DX009 (ip), vehicle: Klucel (hydroxypropylcellulose) (HPC) 95 % of control | dose: 150.0 mg/kg/injection, schedule: Q01DX009 (ip), vehicle: Klucel (hydroxypropylcellulose) (HPC) 93 % of control

CC1CCCCN1CC(Cl)(Cl)Cl (stereo unspecified)
inactive: [10] 89 % of control | [11] 94 % of control

COc1ccc(OCC(=O)O)cc1
inactive: [12] 102 % of control | [13] 107 % of control | [14] 107 % of control

Cc1nc(N)nc(Nc2ccc(CCO)cc2)c1Br
inactive: dose: 100.0 mg/kg/injection, schedule: Q01DX Z (ip), vehicle: methylcellulose (MC) 103 % of control | dose: 200.0 mg/kg/injection, schedule: Q01DX Z (ip), vehicle: methylcellulose (MC) 98 % of control

Cc1cc(C)c2ccc(SC#N)c-2c(C)c1
inactive: [7] 106 % of control | [8] 95 % of control | [9] 101 % of control

CCNCC(=O)O
inactive: [15] 96 % of control | dose: 200.0 mg/kg/injection, schedule: Q04DX002 (ip), vehicle: saline 101 % of control | dose: 400.0 mg/kg/injection, schedule: Q04DX002 (ip), vehicle: saline 104 % of control

COC(=O)c1ccc(OC(=O)Nc2cc(Cl)ccc2C)cc1
inactive: [16] 106 % of control | [17] 89 % of control

C(CCSC1=NCCN1)CSC1=NCCN1
inactive: [15] 105 % of control

CC(CC#N)NCC[P+](c1ccccc1)(c1ccccc1)c1ccccc1 (stereo unspecified)
inactive: [18] 95 % of control | [19] 96 % of control

Clc1sc2ccccc2c1Cl
inactive: [20] 103 % of control | [1] 95 % of control

O=c1cc(NCc2ccccc2Cl)[nH]c(=O)[nH]1
inactive: dose: 100.0 mg/kg/injection, schedule: Q01DX001 (ip), vehicle: gum acacia 93 % of control | dose: 200.0 mg/kg/injection, schedule: Q01DX001 (ip), vehicle: gum acacia 95 % of control | dose: 400.0 mg/kg/injection, schedule: Q01DX001 (ip), vehicle: gum acacia 101 % of control

Cn1cncc1CC1COC(=O)C1C(O)c1ccccc1 (stereo unspecified)
inactive: [10] 108 % of control | [11] 107 % of control

N=C(N)SCCN1C(=O)c2ccccc2C1=O
inactive: [12] 103 % of control

COc1cccc(C(=O)c2cc(O)c3c(c2O)CC(C(C)=O)CC3=O)c1C#N (stereo unspecified)
inactive: dose: 50.0 mg/kg/injection, schedule: Q01DX001 (ip), vehicle: saline with Tween-80 100 % of control | dose: 100.0 mg/kg/injection, schedule: Q01DX001 (ip), vehicle: saline with Tween-80 94 % of control | dose: 200.0 mg/kg/injection, schedule: Q01DX001 (ip), vehicle: saline with Tween-80 98 % of control

COC(=O)Cc1cc(OC)c(OC)cc1I
inactive: [10] 105 % of control | [21] 96 % of control | [11] 100 % of control | [22] 102 % of control | [23] 102 % of control | [24] 102 % of control

Cc1cc(N)on1
inactive: [21] 97 % of control | [18] 96 % of control | [22] 106 % of control | [19] 101 % of control | [24] 88 % of control | [25] 123 % of control

O=C(OC(COC(c1ccccc1)(c1ccccc1)c1ccccc1)C(OC(=O)c1ccccc1)C(COC(c1ccccc1)(c1ccccc1)c1ccccc1)OC(=O)c1ccccc1)c1ccccc1 (stereo unspecified)
inactive: [2] 93 % of control | [4] 93 % of control | [6] 93 % of control

Cc1ccc(NC(=O)Oc2ccc(F)cc2)cc1NC(=O)Oc1ccc(F)cc1
inactive: dose: 25.0 mg/kg/injection, schedule: Q01DX009 (ip), vehicle: other 95 % of control | dose: 50.0 mg/kg/injection, schedule: Q01DX009 (ip), vehicle: other 95 % of control | dose: 100.0 mg/kg/injection, schedule: Q01DX009 (ip), vehicle: other 94 % of control and 100 % of control

CCOC(=O)c1cc(Cl)nc2ccc3ccccc3c12
inactive: [1] 101 % of control | [3] 97 % of control | [5] 96 % of control

CCOC(=O)c1[nH]c(C)c(C(C)=O)c1C
inactive: [16] 92 % of control | [17] 97 % of control | [26] 100 % of control

CC(=O)C(C)(C)Cl
inactive: [16] 94 % of control | [17] 95 % of control | [26] 101 % of control

CCC1C/C(=C\NC(N)=O)C(=O)O1 (stereo unspecified)
inactive: [16] 96 % of control | [12] 96 % of control | [17] 100 % of control | [13] 104 % of control | [26] 100 % of control | [14] 101 % of control

C=CC(=O)NCNC(=O)C=C
inactive: dose: 50.0 mg/kg/injection, schedule: Q04DX003 (ip), vehicle: carboxymethylcellulose (CMC) 100 % of control | [10] 97 % of control | dose: 100.0 mg/kg/injection, schedule: Q04DX003 (ip), vehicle: carboxymethylcellulose (CMC) 110 % of control | [11] 101 % of control | [23] 113 % of control

O=c1[nH]c(=O)c2[nH]c(N=Nc3ccc(S(=O)(=O)N(CCCl)CCCl)cc3)nc2[nH]1
inactive: [20] 97 % of control | [1] 92 % of control | [3] 94 % of control

CCN(CC)Cc1nnnn1-c1ccccc1
inactive: [10] 103 % of control | [11] 97 % of control | [23] 106 % of control

COC(=O)C1ON(C(=O)c2ccccc2)C(C)C(O)C1OC=O (stereo unspecified)
inactive: dose: 100.0 mg/kg/injection, schedule: Q04DX002 (ip), vehicle: Klucel (hydroxypropylcellulose) (HPC) 95 % of control | dose: 200.0 mg/kg/injection, schedule: Q04DX002 (ip), vehicle: Klucel (hydroxypropylcellulose) (HPC) 95 % of control | dose: 400.0 mg/kg/injection, schedule: Q04DX002 (ip), vehicle: Klucel (hydroxypropylcellulose) (HPC) 103 % of control

O=c1oc2cccc(O)c2c(O)c1Cc1ccccc1
inactive: [18] 97 % of control | [19] 94 % of control | [25] 94 % of control
